In PubChem BioAssay AID1963423 (Molecular Pharmacology Branch, DTP, NCI, 2024):
pIC50: −log10 of the molar value.

Test system: 439559-082-T-J2-PDC complex spheroid growth
Experiment: Anticancer human tumor 439559-082-T-J2-PDC patient-derived colon adenocarcinoma cell line growth inhibition [Asc]
Conditions: for pIC50: curve of first compound; for viability, T/C: stronger effect = lower value
Outline: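 Complex solid-tumor spheroids incorporating human endothelial and mesenchymal stem cells received single agents or combinations over half-log dilution ranges anchored to clinical Cmax.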

[1] = second compound 0.00316 µM, first compound 0.00316 µM
[2] = second compound 0.00316 µM, first compound 0.01 µM
[3] = second compound 0.00316 µM, first compound 0.0316 µM
[4] = second compound 0.00316 µM, first compound 0.1 µM
[5] = second compound 0.01 µM, first compound 0.00316 µM
[6] = second compound 0.01 µM, first compound 0.01 µM
[7] = second compound 0.01 µM, first compound 0.0316 µM
[8] = second compound 0.01 µM, first compound 0.1 µM
[9] = second compound 0.0316 µM, first compound 0.00316 µM
[10] = second compound 0.0316 µM, first compound 0.01 µM
[11] = second compound 0.0316 µM, first compound 0.0316 µM
[12] = second compound 0.0316 µM, first compound 0.1 µM
[13] = second compound 0.1 µM, first compound 0.00316 µM
[14] = second compound 0.1 µM, first compound 0.01 µM
[15] = second compound 0.1 µM, first compound 0.0316 µM
[16] = second compound 0.1 µM, first compound 0.1 µM
[17] = second compound 0.316 µM, first compound 0.00316 µM
[18] = second compound 0.316 µM, first compound 0.01 µM
[19] = second compound 0.316 µM, first compound 0.0316 µM
[20] = second compound 0.316 µM, first compound 0.1 µM
[21] = second compound 1 µM, first compound 0.00316 µM
[22] = second compound 1 µM, first compound 0.01 µM
[23] = second compound 1 µM, first compound 0.0316 µM
[24] = second compound 1 µM, first compound 0.1 µM
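Further: spheroids exposed to agents for 7 days starting day 3 after seeding.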
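Wherever viability, T/C is given: percent of DMSO vehicle control viability with 100% = vehicle.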

Work on `COc1c(OCCCN2CCOCC2)ccc2c3n(c(=NC(=O)c4cnc(N)nc4)nc12)CCN3` + CNC(C)C(=O)NC1CN(S(=O)(=O)c2cccc(S(=O)(=O)N3CCC4CCC(C(=O)NC(c5ccccc5)c5ccccc5)N4C(=O)C(NC(=O)C(C)NC)C3)c2)CCC2CCC(C(=O)NC(c3ccccc3)c3ccccc3)N2C1=O yielded a pIC50 (second compound 0.00316 µM) of less than 6.00, a pIC50 (second compound 0.01 µM) of less than 6.00 and a pIC50 (second compound 0.0316 µM) of less than 6.00. For the same compound, the pIC50 (second compound 0.1 µM) was less than 6.00, the pIC50 (second compound 0.316 µM) was less than 6.00 and the pIC50 (second compound 1 µM) was 6.42. It also gave a viability, T/C [1] of 100%, a viability, T/C [2] of 95.2% and a viability, T/C [3] of 98.9%. The viability, T/C [4] was 80.8%, the viability, T/C (second compound 0.00316 µM, first compound 0.316 µM) was 72.6% and the viability, T/C (second compound 0.00316 µM, first compound 1 µM) was 64.7%. For the same compound, the viability, T/C [5] was 102%, the viability, T/C [6] was 88.6% and the viability, T/C [7] was 99.1%. For the same compound, the viability, T/C [8] was 84.5%, the viability, T/C (second compound 0.01 µM, first compound 0.316 µM) was 73.8% and the viability, T/C (second compound 0.01 µM, first compound 1 µM) was 63.4%. The viability, T/C [9] was 93.2%, the viability, T/C [10] was 98.8% and the viability, T/C [11] was 92.5%. For the same compound, the viability, T/C [12] was 77.4%, the viability, T/C (second compound 0.0316 µM, first compound 0.316 µM) was 81.5% and the viability, T/C (second compound 0.0316 µM, first compound 1 µM) was 71.2%. The viability, T/C [13] was 96.2%, the viability, T/C [14] was 109% and the viability, T/C [15] was 82.2%. The viability, T/C [16] was 78.9%, the viability, T/C (second compound 0.1 µM, first compound 0.316 µM) was 70.5% and the viability, T/C (second compound 0.1 µM, first compound 1 µM) was 62.6%. For the same compound, the viability, T/C [17] was 94.9%, the viability, T/C [18] was 89% and the viability, T/C [19] was 85.1%. It also gave a viability, T/C [20] of 66.3%, a viability, T/C (second compound 0.316 µM, first compound 0.316 µM) of 61.3% and a viability, T/C (second compound 0.316 µM, first compound 1 µM) of 58.6%. It also gave a viability, T/C [21] of 80.8%, a viability, T/C [22] of 74.5% and a viability, T/C [23] of 65.6%. For the same compound, the viability, T/C [24] was 53.1%, the viability, T/C (second compound 1 µM, first compound 0.316 µM) was 53.8% and the viability, T/C (second compound 1 µM, first compound 1 µM) was 44.8%.

`NC1CCC(NC2CC2c2ccccc2)CC1` (centres undefined) + CNC(C)C(=O)NC1CN(S(=O)(=O)c2cccc(S(=O)(=O)N3CCC4CCC(C(=O)NC(c5ccccc5)c5ccccc5)N4C(=O)C(NC(=O)C(C)NC)C3)c2)CCC2CCC(C(=O)NC(c3ccccc3)c3ccccc3)N2C1=O gave a pIC50 (second compound 0.00316 µM) of less than 7.00, a pIC50 (second compound 0.01 µM) of less than 7.00 and a pIC50 (second compound 0.0316 µM) of less than 7.00. For the same compound, the pIC50 (second compound 0.1 µM) was less than 7.00, the pIC50 (second compound 0.316 µM) was less than 7.00 and the pIC50 (second compound 1 µM) was less than 7.00. For the same compound, the viability, T/C (second compound 0.00316 µM, first compound 0.000316 µM) was 104%, the viability, T/C (second compound 0.00316 µM, first compound 0.001 µM) was 100% and the viability, T/C [1] was 110%. It also gave a viability, T/C [2] of 95.7%, a viability, T/C [3] of 98.4% and a viability, T/C [4] of 98.2%. For the same compound, the viability, T/C (second compound 0.01 µM, first compound 0.000316 µM) was 102%, the viability, T/C (second compound 0.01 µM, first compound 0.001 µM) was 95% and the viability, T/C [5] was 109%. For the same compound, the viability, T/C [6] was 111%, the viability, T/C [7] was 99.5% and the viability, T/C [8] was 107%. It also gave a viability, T/C (second compound 0.0316 µM, first compound 0.000316 µM) of 107%, a viability, T/C (second compound 0.0316 µM, first compound 0.001 µM) of 91.3% and a viability, T/C [9] of 101%. For the same compound, the viability, T/C [10] was 109%, the viability, T/C [11] was 104% and the viability, T/C [12] was 107%. The viability, T/C (second compound 0.1 µM, first compound 0.000316 µM) was 105%, the viability, T/C (second compound 0.1 µM, first compound 0.001 µM) was 101% and the viability, T/C [13] was 98.1%. It also gave a viability, T/C [14] of 104%, a viability, T/C [15] of 96.4% and a viability, T/C [16] of 98%. The viability, T/C (second compound 0.316 µM, first compound 0.000316 µM) was 95.9%, the viability, T/C (second compound 0.316 µM, first compound 0.001 µM) was 101% and the viability, T/C [17] was 93.6%. For the same compound, the viability, T/C [18] was 100%, the viability, T/C [19] was 101% and the viability, T/C [20] was 97%. The viability, T/C (second compound 1 µM, first compound 0.000316 µM) was 85.5%, the viability, T/C (second compound 1 µM, first compound 0.001 µM) was 85.9% and the viability, T/C [21] was 87.4%. For the same compound, the viability, T/C [22] was 84.5%, the viability, T/C [23] was 86.3% and the viability, T/C [24] was 77.3%.
